What all share (format): in vivo
The subject of series [1] is weeds. Briefly: Pre-emergence test (greenhouse), activity against weeds. The settings on record: in words. The gist of the method: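 Three weeks after treatment, % damage relative to untreated plants is scored, 0% meaning no effect. Seeds in normal soil received, roughly one day post-sowing, an aqueous dilution of an acetone/emulsifier concentrate, with the rate per unit area, not concentration, being the relevant dose.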

The test system of series [2] is weeds. Briefly: Post-emergence test (greenhouse), activity against weeds. The settings on record: in words. On the procedure: (§1) Solvent: 5 parts by weight of acetone
(§2) Emulsifier: 1 part by weight of alkylaryl polyglycol ether
(§3) To produce a suitable preparation of active compound, 1 part by weight of active compound is mixed with the stated amount of solvent, the stated amount of emulsifier is added and the concentrate is diluted with water to the desired concentration.
(§4) Test plants which have a height of 5-15 cm are sprayed with the preparation of the active compound in such a way as to apply the particular amounts of active compound desired per unit area. The concentration of the spray liquor is chosen so that the particular amounts of active compound desired are applied in 2000 l of water/ha.
(§5) After three weeks, the degree of damage to the plants is rated in % damage in comparison to the development of the untreated control.
(§6) 0%=no action (like untreated control)

The test system of series [3] is Maize. Briefly: Post-emergence test/greenhouse, Maize. The settings on record: greenhouse, after three weeks. As to the method:
as §1, §2, §3, §4, §5, §6

In a further series the test system is Digitaria. Briefly: Post-emergence test/greenhouse, Digitaria. The settings on record: greenhouse, after three weeks. On the procedure:
as §1, §2, §3, §4, §5, §6

Another series deals with Echinochloa. Briefly: Post-emergence test/greenhouse, Echinochloa. The settings on record: greenhouse, after three weeks. As to the method: as §1, §2, §3, §4, §5, §6
Series [4] concerns Sorghum. Briefly: Post-emergence test/greenhouse, Sorghum. The settings on record: greenhouse, after three weeks. On the procedure:
as §1, §2, §3, §4, §5, §6

The subject of another series is Amaranthus. Briefly: Post-emergence test/greenhouse, Amaranthus. The settings on record: greenhouse, after three weeks. On the procedure: as §1, §2, §3, §4, §5, §6
Series [5] relates to Matricaria. Briefly: Post-emergence test/greenhouse, Matricaria. The settings on record: greenhouse, after three weeks. On the procedure:
as §1, §2, §3, §4, §5, §6

The next series deals with Stellaria. Briefly: Post-emergence test/greenhouse, Stellaria. The settings on record: greenhouse, after three weeks. As to the method:
as §1, §2, §3, §4, §5, §6

Series [6] has as its system Maize. Briefly: Pre-emergence test/Greenhouse, Maize. The settings on record: in vivo. The gist of the method: (§7)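 First, compound is formulated with solvent and emulsifier and diluted with water. Next, soil sown with seeds is watered with it after about 24 h, at a fixed water amount per area. Finally, damage is rated at three weeks in % against untreated controls.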
Series [7] has as its system Lolium. Briefly: Pre-emergence test/Greenhouse, Lolium. The settings on record: after three weeks. The procedure, abridged:
as §7

In a further series the test system is Poa. Briefly: Pre-emergence test/Greenhouse, Poa. The settings on record: after three weeks. The gist of the method: as §7
For series [8], the system named is Sorghum. Briefly: Pre-emergence test/Greenhouse, Sorghum. The settings on record: after three weeks. The gist of the method: as §7
In the next series the test system is Ambrosia. Briefly: Pre-emergence test/Greenhouse, Ambrosia. The settings on record: after three weeks. The gist of the method: as §7
Series [9] deals with Matricaria. Briefly: Pre-emergence test/Greenhouse, Matricaria. The settings on record: after three weeks. The procedure, abridged:
as §7

A further series has as its system Solanum. Briefly: Pre-emergence test/Greenhouse, Solanum. The settings on record: after three weeks. The gist of the method:
as §7

Series [10] concerns Lolium. Briefly: Post-emergence test/greenhouse, Lolium. The settings on record: greenhouse, 60 g of ai./ha, after three weeks. On the procedure:
as §1, §2, §3, §4, §5, §6

The next series deals with Gallium. Briefly: Post-emergence test/greenhouse, Gallium. The settings on record: greenhouse, after three weeks. On the procedure:
as §1, §2, §3, §4, §5, §6

A further series relates to Soya beans. Briefly: Pre-emergence test/Greenhouse, Soya beans. The settings on record: in vivo. The gist of the method:
as §7

Turning to `CCOn1c(CC)nn(C(=O)NS(=O)(=O)c2c(C)csc2C(=O)OC)c1=O` [Example 38], the activity against weeds result in the series with weeds [1] and with weeds [2] was “very strong activity against weeds” in each case. Moreover, the “degree of damage, Maize” value with Maize [3] (60 g of ai./ha) turned out to be 10%. Moreover, the “degree of damage, Digitaria” value in the series with Digitaria (60 g of ai./ha) turned out to be 70%. In addition, the “degree of damage, Echinochloa” value in the series with Echinochloa (60 g of ai./ha) is listed as 90%. In the series on Sorghum [4] (60 g of ai./ha), the “degree of damage, Sorghum” value was 95%. For the same compound, the “degree of damage, Amaranthus” value with Amaranthus (60 g of ai./ha) worked out at 100%. Moreover, the “degree of damage, Matricaria” value with Matricaria [5] (60 g of ai./ha) is listed as 95%. Also, the “degree of damage, Stellaria” value in the series on Stellaria (60 g of ai./ha) is recorded as 95%. Besides, in the series with Maize [6], the “degree of damage to the plants (% damage vs untreated control), Maize” value (shortened to “degree … (% damage vs untreated control), Maize”) came to 0%. Further, the “degree of damage to the plants (% damage vs untreated control), Lolium” value (from here on “degree … (% damage vs untreated control), Lolium”) with Lolium [7] (60 g of ai./ha) is listed as 95%. Also, the “degree of damage to the plants (% damage vs untreated control), Poa” value (from here on “degree … (% damage vs untreated control), Poa”) in the series with Poa (60 g of ai./ha) turned out to be 70%. For the same compound, the “degree of damage to the plants (% damage vs untreated control), Sorghum” value with Sorghum [8] (60 g of ai./ha) was 60%. In the series on Ambrosia (60 g of ai./ha), the “degree of damage to the plants (% damage vs untreated control), Ambrosia” value came out at 95%. Moreover, the “degree of damage to the plants (% damage vs untreated control), Matricaria” value in the series with Matricaria [9] (60 g of ai./ha) amounted to 95%. For the same compound, the “degree of damage to the plants (% damage vs untreated control), Solanum” value in the series with Solanum (60 g of ai./ha) is 95%.

Regarding `CCOC(=O)c1scc(C)c1S(=O)(=O)NC(=O)n1nc(OCC)n(C)c1=O` [Example 54], the activity against weeds result in the series on weeds [1] and in the series with weeds [2] was “very strong activity against weeds” each time. Further, in the series with Maize [3] (60 g of ai./ha), the “degree of damage, Maize” value came to 30%. The “degree of damage, Echinochloa” value with Echinochloa (60 g of ai./ha) was found to be 95%. In addition, in the series with Lolium [10], the “degree of damage, Lolium” value is recorded as 95%. Moreover, the “degree of damage, Sorghum” value with Sorghum [4] (60 g of ai./ha) stood at 95%. In the series with Amaranthus (60 g of ai./ha), the “degree of damage, Amaranthus” value is reported as 100%. Further, in the series with Gallium (60 g of ai./ha), the “degree of damage, Gallium” value was found to be 85%. In addition, the “degree of damage, Matricaria” value with Matricaria [5] (60 g of ai./ha) came out at 100%. In addition, in the series with Stellaria (60 g of ai./ha), the “degree of damage, Stellaria” value turned out to be 100%. The “degree … (% damage vs untreated control), Maize” value in the series on Maize [6] stood at 0%. Besides, the “degree … (% damage vs untreated control), Lolium” value with Lolium [7] (30 g of ai./ha) is reported as 95%. The “degree … (% damage vs untreated control), Poa” value with Poa (30 g of ai./ha) is reported as 95%. Besides, the “degree of damage to the plants (% damage vs untreated control), Sorghum” value in the series on Sorghum [8] (30 g of ai./ha) was 80%. The “degree of damage to the plants (% damage vs untreated control), Ambrosia” value with Ambrosia (30 g of ai./ha) is listed as 95%. Besides, the “degree of damage to the plants (% damage vs untreated control), Matricaria” value in the series on Matricaria [9] (30 g of ai./ha) turned out to be 95%. Also, in the series with Solanum (30 g of ai./ha), the “degree of damage to the plants (% damage vs untreated control), Solanum” value came out at 95%.

With `CCSc1nn(C(=O)NS(=O)(=O)c2c(C)cccc2C(=O)OC)c(=O)n1C` [Example 141], the activity against weeds entry in the series with weeds [1] and with weeds [2] was “very strong activity against weeds” in each case. Moreover, the “degree of damage, Maize” value with Maize [3] (30 g of ai./ha) is 10%. The “degree of damage, Digitaria” value in the series on Digitaria (30 g of ai./ha) is 70%. In the series with Echinochloa (30 g of ai./ha), the “degree of damage, Echinochloa” value came to 90%. Also, in the series with Sorghum [4] (30 g of ai./ha), the “degree of damage, Sorghum” value worked out at 90%. In the series on Amaranthus (30 g of ai./ha), the “degree of damage, Amaranthus” value came to 100%. Further, in the series with Gallium (30 g of ai./ha), the “degree of damage, Gallium” value was 90%. For the same compound, the “degree of damage, Matricaria” value in the series with Matricaria [5] (30 g of ai./ha) worked out at 70%. In addition, in the series on Stellaria (30 g of ai./ha), the “degree of damage, Stellaria” value worked out at 95%. In addition, in the series with Maize [6], the “degree … (% damage vs untreated control), Maize” value was 30%. Moreover, the “degree of damage to the plants (% damage vs untreated control), Soya beans” value with Soya beans amounted to 0%. Further, the “degree … (% damage vs untreated control), Lolium” value with Lolium [7] (15 g of ai./ha) was 90%. In addition, in the series with Poa (15 g of ai./ha), the “degree … (% damage vs untreated control), Poa” value is 80%. In the series with Sorghum [8] (15 g of ai./ha), the “degree of damage to the plants (% damage vs untreated control), Sorghum” value came to 80%. In the series with Ambrosia (15 g of ai./ha), the “degree of damage to the plants (% damage vs untreated control), Ambrosia” value is listed as 90%. Further, the “degree of damage to the plants (% damage vs untreated control), Matricaria” value in the series on Matricaria [9] (15 g of ai./ha) amounted to 80%. In addition, the “degree of damage to the plants (% damage vs untreated control), Solanum” value in the series with Solanum (15 g of ai./ha) was found to be 90%.

With `COC(=O)c1cccc(C)c1S(=O)(=O)NC(=O)n1nc(OC)n(C2CC2)c1=O` [Example 164], the activity against weeds entry with weeds [1] and in the series with weeds [2] was “very strong activity against weeds” in each case. In addition, in the series with Digitaria (60 g of ai./ha), the “degree of damage, Digitaria” value turned out to be 60%. Moreover, the “degree of damage, Echinochloa” value in the series with Echinochloa (60 g of ai./ha) amounted to 80%. Also, the “degree of damage, Lolium” value with Lolium [10] was 70%. Also, the “degree of damage, Sorghum” value in the series on Sorghum [4] (60 g of ai./ha) was found to be 95%. Further, the “degree of damage, Amaranthus” value in the series on Amaranthus (60 g of ai./ha) was 100%. In the series on Gallium (60 g of ai./ha), the “degree of damage, Gallium” value is reported as 90%. For the same compound, the “degree of damage, Matricaria” value with Matricaria [5] (60 g of ai./ha) was determined as 100%. Moreover, the “degree of damage, Stellaria” value with Stellaria (60 g of ai./ha) is on record as 95%. The “degree … (% damage vs untreated control), Maize” value with Maize [6] stood at 20%. Besides, the “degree of damage to the plants (% damage vs untreated control), Soya beans” value in the series on Soya beans is reported as 0%. The “degree … (% damage vs untreated control), Lolium” value with Lolium [7] (8 g of ai./ha) is 95%. The “degree … (% damage vs untreated control), Poa” value with Poa (8 g of ai./ha) is recorded as 95%. The “degree of damage to the plants (% damage vs untreated control), Sorghum” value in the series with Sorghum [8] (8 g of ai./ha) was 90%. The “degree of damage to the plants (% damage vs untreated control), Ambrosia” value in the series on Ambrosia (8 g of ai./ha) was 100%. Further, in the series with Matricaria [9] (8 g of ai./ha), the “degree of damage to the plants (% damage vs untreated control), Matricaria” value is given as 70%. The “degree of damage to the plants (% damage vs untreated control), Solanum” value in the series with Solanum (8 g of ai./ha) worked out at 95%.

For the origin of these results see patent US6441195B1, “Substituted sulphonylamino(thio) carbonyl compounds” (Bayer Aktiengesellschaft, priority 1995, dated 2002).
